Experimental data taken from patent publication US11510920B2, “Compositions and methods for treating EZH2-mediated cancer” (Icahn School of Medicine at Mount Sinai, priority 2016, dated 2022).

test system: MDA-MB-468 cells; assay: Proliferation assay (IncuCyte cell confluence), MDA-MB-468; type: cell-based; settings: Homo sapiens, concentration for 50% of maximal inhibition of cell proliferation
Procedure: 1-3×10^3 cells were seeded in 96-well plates in duplicates and treated at the indicated compound concentrations. Cells were monitored using the IncuCyte® live cell imaging system (Essen BioScience™, Ann Arbor, Mich.) which was placed in a cell culture incubator operated at 37° C. and 5% CO2. Cell confluence was determined using calculations derived from phase-contrast images. The concentration for 50% of maximal inhibition of cell proliferation (GI50) values were determined by fitting to a standard four-parameter logistic using GraphPad Prism® v5. Graphs depicting the GI50s of select EZH2 degraders/disruptors described here for various cancer cell lines are shown in FIGS. 4-49.

| GI50 | SMILES |
| --- | --- |
| 2.5 µM | Cc1cc(C)c(CNC(=O)c2cc(-c3ccc(N4CCN(CCNC(=O)CCOCCNc5cccc6c5C(=O)N(C5CCC(=O)NC5=O)C6=O)CC4)nc3)cc3c2cnn3C(C)C)c(=O)[nH]1 (stereo not shown) [AM29-177A, N-((4,6-dimethyl-2-oxo-1,2-dihydropyridin-3-yl)methyl)-6-(6-(4-(2-(3-(2-((2-(2,6-dioxopiperidin-3-yl)-1,3-dioxoisoindolin-4-yl)amino)ethoxy)propanamido)ethyl)piperazin-1-yl)pyridin-3-yl)-1-isopropyl-1H-indazole-4-carboxamide] |
| 2.3 µM | Cc1cc(C)c(CNC(=O)c2cc(-c3ccc(N4CCN(CCNCCC56CC7CC(CC(C7)C5)C6)CC4)nc3)cc3c2c(C)cn3C(C)C)c(=O)[nH]1 [AM41-41A, 6-(6-(4-(2-((2-((3r,5r,7r)-adamantan-1-yl)ethyl)amino)ethyl)piperazin-1-yl)pyridin-3-yl)-N-((4,6-dimethyl-2-oxo-1,2-dihydropyridin-3-yl)methyl)-1-isopropyl-3-methyl-1H-indole-4-carboxamide] |
| 1.1 µM | CCN(c1cc(-c2ccc(CN3CCN(CCN(CCC45CC6CC(CC(C6)C4)C5)CCC45CC6CC(CC(C6)C4)C5)CC3)cc2)cc(C(=O)NCc2c(C)cc(C)[nH]c2=O)c1C)C1CCOCC1 [CZ40-75, 4′-((4-(2-((2-((1s,3S)-adamantan-1-yl)ethyl)(2-((3R,5R,7R)-adamantan-1-yl)ethyl)amino)ethyl)piperazin-1-yl)methyl)-N-((4,6-dimethyl-2-oxo-1,2-dihydropyridin-3-yl)methyl)-5-(ethyl(tetra-hydro-2H-pyran-4-yl)amino)-4-methyl-[1,1′-biphenyl]-3-carboxamide] |
| 1.5 µM | CCN(c1cc(-c2ccc(CN3CCN(CCNC(=O)CCSCCC[C@@H]4/C=C(\C)C[C@H](C)C[C@H](OC)[C@H]5O[C@@](O)(C(=O)C(=O)N6CCCC[C@H]6C(=O)O[C@H](/C(C)=C/[C@@H]6CC[C@@H](O)[C@H](OC)C6)[C@H](C)[C@@H](O)CC4=O)[C@H](C)C[C@@H]5OC)CC3)cc2)cc(C(=O)NCc2c(C)cc(C)[nH]c2=O)c1C)C1CCOCC1 [CZ40-131, FK506 adduct with N-((4,6-dimethyl-2-oxo-1,2-dihydropyridin-3-yl)methyl)-5-(ethyl(tetrahydro-2H-pyran-4-yl)amino)-4′-((4-(2-(3-mercaptopropanamido)ethyl)piperazin-1-yl)methyl)-4-methyl-[1,1′-biphenyl]-3-carboxamide] |
| 1.8 µM | CCN(c1cc(-c2ccc(CN3CCN(CCNCCC45CC6CC(CC(C6)C4)C5)CC3)cc2)cc(C(=O)NCc2c(C)cc(C)[nH]c2=O)c1C)C1CCOCC1 [CZ40-149, 4′-((4-(2-((2-((1s,3s)-adamantan-1-yl)ethyl)amino)ethyl)piperazin-1-yl)methyl)-N-((4,6-dimethyl-2-oxo-1,2-dihydropyridin-3-yl)methyl)-5-(ethyl(tetra-hydro-2H-pyran-4-yl)amino)-4-methyl-[1,1′-biphenyl]-3-carboxamide] |

| SMILES | GI50 |
| --- | --- |
| Cc1cc(C)c(CNC(=O)c2c(C)n([C@@H](C)C3CCN(CCNC(=O)CC4C5CC6CC(C5)CC4C6)CC3)c3ccccc23)c(=O)[nH]1 (stereo partly drawn) [XF042-90, 1-((S)-1-(1-(2-(2-((1R,3S,5S,7S)-adamantan-2-yl)acetamido)ethyl)piperidin-4-yl)ethyl)-N-((4,6-dimethyl-2-oxo-1,2-dihydropyridin-3-yl)methyl)-2-methyl-1H-indole-3-carboxamide] | 7.2 µM |
| CO[C@H]1C[C@@H](C)C/C(C)=C/[C@@H](CCCSCCC(=O)NCCN2CCC([C@H](C)n3c(C)c(C(=O)NCc4c(C)cc(C)[nH]c4=O)c4ccccc43)CC2)C(=O)C[C@H](O)[C@@H](C)[C@@H](/C(C)=C/[C@@H]2CC[C@@H](O)[C@H](OC)C2)OC(=O)[C@@H]2CCCCN2C(=O)C(=O)[C@]2(O)O[C@H]1[C@@H](OC)C[C@H]2C [XF042-92, FK506 adduct with (S)-N-((4,6-dimethyl-2-oxo-1,2-dihydropyridin-3-yl)methyl)-1-(1-(1-(2-(3-mercaptopropanamido)ethyl)piperidin-4-yl)ethyl)-2-methyl-1H-indole-3-carboxamide] | 2.6 µM |
